Reference: ChEMBL document CHEMBL6134851, “Comparative Study on Covalent and Noncovalent Endogenous Albumin-Binding β-Glucuronidase-Activated SN38 Prodrugs for Antitumor Efficacy” (J Med Chem, 2025)
Active and inactive are the calls of the source. No cut-off for these calls is given here.

Columns and labels:
[1] = test system: A549; assay: Antiproliferative activity against human A549 cells assessed as reduction in cell viability treated with HSA bound prodrug measured after 72 hrs by MTT assay; type: functional, cell-based
[2] = test system: 4T1; assay: Antiproliferative activity against mouse 4T1 cells assessed as reduction in cell viability measured after 72 hrs by MTT assay; type: functional, cell-based
[3] = test system: HepG2; assay: Antiproliferative activity against human HepG2 cells assessed as reduction in cell viability measured after 72 hrs by MTT assay; type: functional, cell-based
[4] = test system: A549; assay: Antiproliferative activity against human A549 cells assessed as reduction in cell viability measured after 72 hrs by MTT assay; type: functional, cell-based
[5] = test system: BXPC-3; assay: Antiproliferative activity against human BXPC-3 cells assessed as reduction in cell viability treated with HSA bound prodrug measured after 72 hrs by MTT assay; type: functional, cell-based
[6] = Toxicity in female BALB/cA nude mouse assessed as appearance of inflammatory lesions in heart at 38 mg/kg, iv administered once a week for 35 days by H and E staining based analysis; type: organism-based; settings: in vivo, 840 h, time 35 day
[7] = test system: 4T1; assay: Antiproliferative activity against mouse 4T1 cells assessed as reduction in cell viability measured after 72 hrs in presence of beta-glucuronidase by MTT assay; type: functional, cell-based
[8] = test system: BXPC-3; assay: Antiproliferative activity against human BXPC-3 cells assessed as reduction in cell viability treated with HSA bound prodrug measured after 72 hrs in presence of beta-glucuronidase by MTT assay; type: functional, cell-based
[9] = Drug uptake in human HCT-116 cells assessed as increase in fluorescence intensity measured after 1 to 6 hrs by confocal microscopy analysis; type: ADME, cell-based; settings: time 1-6 hrs
[10] = test system: HCT-116; assay: Antiproliferative activity against human HCT-116 cells assessed as reduction in cell viability treated with HSA bound prodrug measured after 72 hrs in presence of beta-glucuronidase by MTT assay; type: functional, cell-based
[11] = test system: 4T1; assay: Antiproliferative activity against mouse 4T1 cells assessed as reduction in cell viability treated with HSA bound prodrug measured after 72 hrs by MTT assay; type: functional, cell-based
[12] = test system: HCT-116; assay: Antiproliferative activity against human HCT-116 cells assessed as reduction in cell viability measured after 72 hrs in presence of beta-glucuronidase by MTT assay; type: functional, cell-based
[13] = Toxicity in female BALB/cA nude mouse assessed as fibrotic changes in liver at 38 mg/kg, iv administered once a week for 35 days by H and E staining based analysis; type: organism-based; settings: in vivo, 840 h, time 35 day
[14] = test system: HepG2; assay: Antiproliferative activity against human HepG2 cells assessed as reduction in cell viability treated with HSA bound prodrug measured after 72 hrs by MTT assay; type: functional, cell-based
[15] = molecular target: Albumin (Homo sapiens, UniProt P02768); assay: Binding affinity to human serum albumin assessed as binding rate measured within 4 mins by HPLC analysis relative to control; type: ADME; settings: isolated protein
Sequence of Albumin (P02768 whole entry): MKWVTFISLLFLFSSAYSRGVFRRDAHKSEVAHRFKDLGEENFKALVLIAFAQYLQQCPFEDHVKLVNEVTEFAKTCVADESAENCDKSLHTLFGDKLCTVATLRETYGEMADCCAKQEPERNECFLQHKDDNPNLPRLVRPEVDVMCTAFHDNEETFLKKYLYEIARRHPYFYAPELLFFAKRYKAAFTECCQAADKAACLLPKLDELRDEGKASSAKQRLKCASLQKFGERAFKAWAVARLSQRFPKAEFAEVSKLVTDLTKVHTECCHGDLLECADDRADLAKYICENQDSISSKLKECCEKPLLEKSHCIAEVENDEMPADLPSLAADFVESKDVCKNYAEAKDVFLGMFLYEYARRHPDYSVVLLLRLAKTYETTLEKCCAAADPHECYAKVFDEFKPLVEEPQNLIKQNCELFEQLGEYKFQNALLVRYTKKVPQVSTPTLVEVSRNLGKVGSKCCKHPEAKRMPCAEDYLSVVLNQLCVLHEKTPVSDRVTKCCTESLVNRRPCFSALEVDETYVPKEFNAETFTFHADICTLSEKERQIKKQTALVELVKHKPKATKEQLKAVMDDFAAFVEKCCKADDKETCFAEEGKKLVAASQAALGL

[16] = Toxicity in female BALB/cA nude mouse assessed as fibrotic changes in heart at 38 mg/kg, iv administered once a week for 35 days by H and E staining based analysis; type: organism-based; settings: in vivo, 840 h, time 35 day
[17] = Toxicity in female BALB/cA nude mouse assessed as appearance of fibrosis in lung at 38 mg/kg, iv measured after 24 hrs by H and E staining based analysis; type: organism-based; settings: in vivo
[18] = test system: HCT-116; assay: Antiproliferative activity against human HCT-116 cells assessed as reduction in cell viability treated with HSA bound prodrug measured after 72 hrs by MTT assay; type: functional, cell-based
[19] = Toxicity in female BALB/cA nude mouse assessed as effect on body weight loss at 38 mg/kg, iv administered twice per week measured for 107 days; type: organism-based; settings: in vivo, 2568 h, time 107 day
[20] = test system: HCT-116; assay: Antitumor activity against human HCT-116 cells xenografted in female BALB/cA nude mouse model assessed as increase in tumor cell apoptosis by measuring increase in red fluorescence at 38 mg/kg, iv by TUNEL analysis; type: functional, organism-based
[21] = Prodrug release in human plasma assessed as (S)-4,11-diethyl-4,9-dihydroxy-1,12-dihydro-14H-pyrano[3',4':6,7]indolizino[1,2-b]quinoline-3,14(4H)-dione release measured after 7 days relative to control; type: ADME, cell-free; settings: 168 h, time 7 day
[22] = test system: HepG2; assay: Antiproliferative activity against human HepG2 cells assessed as reduction in cell viability measured after 72 hrs in presence of beta-glucuronidase by MTT assay; type: functional, cell-based
[23] = test system: HCT-116; assay: Antiproliferative activity against human HCT-116 cells assessed as reduction in cell viability measured after 72 hrs by MTT assay; type: functional, cell-based
[24] = Toxicity in female BALB/cA nude mouse assessed as appearance of inflammatory lesions in lung at 38 mg/kg, iv administered once a week for 35 days by H and E staining based analysis; type: organism-based; settings: in vivo, 840 h, time 35 day
[25] = test system: HepG2; assay: Antiproliferative activity against human HepG2 cells assessed as reduction in cell viability treated with HSA bound prodrug measured after 72 hrs in presence of beta-glucuronidase by MTT assay; type: functional, cell-based
[26] = test system: BXPC-3; assay: Antitumor activity against human BXPC-3 cells xenografted in female BALB/cA nude mouse model assessed as suppression of tumor growth by measuring relative tumor proliferation rate at 38 mg/kg, iv measured after 18 days; type: functional, organism-based; settings: time 18.0 day
[27] = test system: 4T1; assay: Antiproliferative activity against mouse 4T1 cells assessed as reduction in cell viability treated with HSA bound prodrug measured after 72 hrs in presence of beta-glucuronidase by MTT assay; type: functional, cell-based
[28] = test system: A549; assay: Antiproliferative activity against human A549 cells assessed as reduction in cell viability measured after 72 hrs in presence of beta-glucuronidase by MTT assay; type: functional, cell-based
[29] = Prodrug release in female BALB/c nude mouse tumor assessed as (S)-4,11-diethyl-4,9-dihydroxy-1,12-dihydro-14H-pyrano[3',4':6,7]indolizino[1,2-b]quinoline-3,14(4H)-dione accumulation at 38 mg/kg measured after 6 hrs by HPLC analysis; type: ADME, organism-based, Neoplasm; settings: in vivo
[30] = test system: A549; assay: Antiproliferative activity against human A549 cells assessed as reduction in cell viability treated with HSA bound prodrug measured after 72 hrs in presence of beta-glucuronidase by MTT assay; type: functional, cell-based
[31] = Toxicity in female BALB/cA nude mouse assessed as damage in lung at 38 mg/kg, iv measured after 24 hrs by H and E staining based analysis; type: organism-based; settings: in vivo
[32] = Toxicity in female BALB/cA nude mouse assessed as effect on body weight loss at 38 mg/kg, iv administered once a week for 35 days; type: organism-based; settings: in vivo, 840 h, time 35 day
[33] = Toxicity in female BALB/cA nude mouse assessed as mortality at 25 mg/kg, iv administered twice per week measured after 107 days; type: organism-based; settings: in vivo, 2568 h, time 107 day
[34] = Toxicity in female BALB/cA nude mouse assessed as effect on body weight loss at 25 mg/kg, iv administered once a week for 35 days; type: organism-based; settings: in vivo, 840 h, time 35 day
[35] = Half life in female BALB/c mouse at 25 mg/kg measured up to 120 hrs by HPLC analysis; type: ADME, organism-based; settings: in vivo
[36] = Toxicity in female BALB/cA nude mouse assessed as effect on body weight loss at 25 mg/kg, iv administered twice per week measured after 107 days; type: organism-based; settings: in vivo, 2568 h, time 107 day
[37] = test system: BXPC-3; assay: Antitumor activity against human BXPC-3 cells xenografted in female BALB/cA nude mouse model assessed as suppression of tumor growth by measuring relative tumor proliferation rate at 25 mg/kg, iv measured after 24 days relative to control; type: functional; settings: time 24 day
[38] = Toxicity in female BALB/cA nude mouse assessed as fibrotic changes in heart at 25 mg/kg, iv administered once a week for 35 days by H and E staining based analysis; type: organism-based; settings: in vivo, 840 h, time 35 day

| SMILES | Activity [1] | Activity [2] | Activity [3] | Activity [4] | Activity [5] | Activity [7] | Activity [8] | Drug uptake [9] | Activity [10] | Activity [11] | Activity [12] | Activity [14] | Activity [15] [%] | Activity [18] | Drug metabolism [21] | Activity [22] | Activity [23] | Activity [25] | Activity [27] | Activity [28] | also measured |
| --- | --- | --- | --- | --- | --- | --- | --- | --- | --- | --- | --- | --- | --- | --- | --- | --- | --- | --- | --- | --- | --- |
| CCc1c2c(nc3ccc(OCc4ccc(O[C@@H]5O[C@H](C(=O)O)[C@@H](O)[C@H](O)[C@H]5O)c(NC(=O)CCNC(=O)COCCOCCNC(=O)COCCOCCNC(=O)CC[C@H](NC(=O)CCCCCCCCCCCCCCCCC(=O)O)C(=O)O)c4)cc13)-c1cc3c(c(=O)n1C2)COC(=O)[C@]3(O)CC | inactive | Not active; Compound Showed Lower Cytotoxicity Compared To Sn38 | Not active; Compound Showed Lower Cytotoxicity Compared To Sn38 | Not active; Compound Showed Lower Cytotoxicity Compared To Sn38 | inactive | Active | Active | Active | Active | inactive | Active | inactive | 95 | inactive | metabolite_notdetected | Active | Not active; Compound Showed Lower Cytotoxicity Compared To Sn38 | Active | Active | Active | Activity [6]: Non-toxic; Activity [13]: Non-toxic; Activity [16]: Non-toxic; Activity [17]: Toxic; Activity [19]: Non-toxic; Activity [20]: Active; Activity [24]: Non-toxic; Activity [26]: inactive; Drug metabolism [29]: 0.376 % ID/g; Activity [30]: Active; Activity [31]: Toxic; Activity [32]: Non-toxic |
| CCc1c2c(nc3ccc(OCc4ccc(O[C@@H]5O[C@H](C(=O)O)[C@@H](O)[C@H](O)[C@H]5O)c(NC(=O)CCNC(=O)CCCCCN5C(=O)C=CC5=O)c4)cc13)-c1cc3c(c(=O)n1C2)COC(=O)[C@]3(O)CC | inactive | Not active; Compound Showed Lower Cytotoxicity Compared To Sn38 | Not active; Compound Showed Lower Cytotoxicity Compared To Sn38 | Not active; Compound Showed Lower Cytotoxicity Compared To Sn38 | inactive | Active | Active | Active | Active | inactive | Active | inactive | 99 | inactive | metabolite_notdetected | Active | Not active; Compound Showed Lower Cytotoxicity Compared To Sn38 | Active | Active | Active | Activity [33]: Non-toxic; Activity [34]: Non-toxic; t1/2 [35]: 52.31 h; Activity [36]: Non-toxic; Activity [30]: Active; Activity [37]: 8.97%; Activity [38]: Non-toxic |
